Assay type: physicochemical
Experimental: Thermogravimetric analysis (TGA) was performed using a Mettler TGA 2 equipped with a 34 position auto-sampler. The instrument was calibrated for energy and temperature using certified Isoderm and Nickel. 10.01 mg of the ceramide NP powder of Example 1 was added to a pinhole aluminum pan and heated from 20° C. to 800° C. at 10° C./min to perform thermogravimetric analysis. The TGA results of the ceramide NP powder of Example 1 are shown in FIG. 7, and the TGA results of the ceramide NP powder of Comparative Example 1 are shown in FIG. 8. The TGA results of ceramide NP powder of Example 1 and the ceramide NP powder of Comparative Example 1 are compared to each other by being arranged to overlap each other in FIG. 9.

mass remaining	stability compared with ceramide NP powder of Comparative Example 1	temperature at which decomposition began (no weight loss until then) (TGA, heated from 20° C. to 800° C. at 10° C./min)	Compound
about 95%	–	–	ceramide NP [Comparative Example 1, reference compound]
about 95%	more stable	200 °C	CCCCCCCC/C=C\CCCCCCCC(=O)N[C@@H](CO)[C@H](O)[C@H](O)CCCCCCCCCCCCCC [Example 1, ceramide NP]

Reference: US20260283927A1, “CRYSTALLINE FORM OF CERAMIDE NP AND COMPOSITION INCLUDING THE SAME” (CRODA KOREA LTD., priority 2023, published 2026)
